PubChem BioAssay (NCI)
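The compound was tested at five concentrations on cells cultured in 96-well plates, with a 48-hour exposure period. At the TGI there is no net growth.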

Legend:
Experiment in all cases: NCI tumour cell line growth inhibition, 48 h
786-0 renal = tested on: 786-0 renal
CAKI-1 renal = tested on: CAKI-1 renal
HCT-15 colon = tested on: HCT-15 colon
HT29 colon = tested on: HT29 colon
K-562 leukemia = tested on: K-562 leukemia
KM12 colon = tested on: KM12 colon
MCF7 breast = tested on: MCF7 breast
MDA-MB-435 = tested on: MDA-MB-435
OVCAR-4 ovarian = tested on: OVCAR-4 ovarian
OVCAR-5 ovarian = tested on: OVCAR-5 ovarian
RPMI-8226 leukemia = tested on: RPMI-8226 leukemia
RXF 393 renal = tested on: RXF 393 renal
SF-268 CNS = tested on: SF-268 CNS
SNB-19 CNS = tested on: SNB-19 CNS
SR leukemia = tested on: SR leukemia
SW-620 colon = tested on: SW-620 colon
UACC-62 melanoma = tested on: UACC-62 melanoma
IGROV1 ovarian = tested on: IGROV1 ovarian
HOP-92 NSCLC = tested on: HOP-92 NSCLC

Compound	TGI (786-0 renal) [µM]	TGI (CAKI-1 renal) [µM]	TGI (HCT-15 colon) [µM]	TGI (HT29 colon) [µM]	TGI (K-562 leukemia) [µM]	TGI (KM12 colon) [µM]	TGI (MCF7 breast) [µM]	TGI (MDA-MB-435) [µM]	TGI (OVCAR-4 ovarian) [µM]	TGI (OVCAR-5 ovarian) [µM]	TGI (RPMI-8226 leukemia) [µM]	TGI (RXF 393 renal) [µM]	TGI (SF-268 CNS) [µM]	TGI (SNB-19 CNS) [µM]	TGI (SR leukemia) [µM]	TGI (SW-620 colon) [µM]	TGI (UACC-62 melanoma) [µM]	TGI (IGROV1 ovarian) [µM]	TGI (HOP-92 NSCLC) [µM]
CS(=O)(=O)c1ccc(C(=O)O[C@@H]2C(=O)N3CC[C@H]4OC(O)[C@@H]2[C@H]43)cc1 (stereo partly drawn)	> 100	> 100	> 100	> 100	> 100	> 100	> 100	> 100	> 100	> 100	> 100	> 100	> 100	> 100	> 100	> 100	> 100		
CC(C)(C)c1ccc(NS(=O)(=O)c2ccc(N)cc2)cc1	52.1	99.4	> 100	35.3	41.7	> 100	39	73.5	> 100	84.3	30.6	94.1	78.2	> 100		69	30.3	45.2	
Cn1c2ccccc2c2c3c(c4c5ccccc5n(C)c4c21)C(=O)N(Cc1ccccc1)C3=O	> 100	> 100	> 100	> 100	> 100	> 100	> 100	> 100	> 100	> 100	> 100			> 100	51.6	> 100	> 100	> 100	> 100
Nc1ccc2nc3n(c2c1)C(c1c(F)cccc1F)SC3 (stereo not drawn)	> 100	> 100	> 100	> 100	> 100	> 100	> 100	> 100	> 100	> 100	> 100	> 100	> 100	> 100	> 100	> 100	> 100	> 100	
O=C1C=CC(=O)c2c(O)c(NCCN3CCOCC3)c(Cl)c(O)c21	5.47	3.25	3.87	4.7	7.59	> 10	2.96	4.12	3.22				6.12	3.23		2.91	3.03	3.72	6.39
CCSC1=N/C(=C\c2ccco2)C(Nc2ccc(C)cc2)=N1	> 100		> 100	> 100	> 100	> 100	> 100	> 100		> 100	> 100		> 100	> 100	> 100	> 100	> 100	> 100	> 100
COP(=O)(/C=C/C(NC(=O)C(Cl)(Cl)Cl)c1ccccc1)OC (stereo not drawn)	> 100	> 100	> 100	> 100	> 100	> 100	> 100	> 100	> 100	> 100	> 100	> 100	> 100	> 100		> 100	> 100	> 100	> 100
